Values after ≈ are worked out from the molar mass of the structure shown.
Tests used:
[1] = system: Mycobacterium tuberculosis; test: Antimycobacterial activity against Mycobacterium tuberculosis H37Rv assessed as growth inhibition by Alamar Blue staining-based broth microdilution assay; type: functional, organism-based
[2] = system: Mycobacterium tuberculosis; test: Potency index, ratio of pyrimethamine MIC90 to compound MIC90 for Mycobacterium tuberculosis H37Rv; type: functional
Vero = test: Cytotoxicity against African green monkey Vero cells assessed as cell viability up to 62.5 ug/mL after 72 hrs by MTT assay; type: cell-based; details: chlorocebus sabaeus
[3] = system: Mycobacterium tuberculosis; test: Potency index, ratio of cycloserine EC50 to compound EC50 for Mycobacterium tuberculosis H37Rv; type: functional
[4] = system: Mycobacterium tuberculosis; test: Potency index, ratio of pyrimethamine EC90 to compound EC90 for Mycobacterium tuberculosis H37Rv; type: functional
[5] = system: Mycobacterium tuberculosis; test: Potency index, ratio of pyrimethamine EC50 to compound EC50 for Mycobacterium tuberculosis H37Rv; type: functional

COc1ccc(/C=C2\SC(=O)N(C(C(=O)C3CC3)c3ccccc3F)C2=O)cc1OC (stereo unspecified)
EC50 [1]: 8 µM
EC90 [1]: 16 µM
MIC90 [1]: 25 µM (≈ 11 µg/mL)
Ratio [2]: 4
Activity (Vero): Non-toxic

COc1cc(OC)c(/C=C2\SC(=O)N(C(C(=O)C3CC3)c3ccccc3F)C2=O)c(OC)c1 (stereo unspecified)
EC50 [1]: 13 µM
EC90 [1]: 27 µM
MIC90 [1]: 50 µM (≈ 23.6 µg/mL)
Activity (Vero): Non-toxic

COc1cc(/C=C2\SC(=O)N(C(C(=O)C3CC3)c3ccccc3F)C2=O)cc(OC)c1OC (stereo unspecified)
EC50 [1]: 19 µM
EC90 [1]: 53 µM
MIC90 [1]: 50 µM (≈ 23.6 µg/mL)
Activity (Vero): Non-toxic

COc1cc(Br)c(/C=C2\SC(=O)N(C(C(=O)C3CC3)c3ccccc3F)C2=O)cc1O (stereo unspecified)
EC50 [1]: 15 µM
EC90 [1]: 54 µM
MIC90 [1]: 50 µM (≈ 25.3 µg/mL)
Activity (Vero): Non-toxic

O=C(C1CC1)C(c1ccccc1F)N1C(=O)S/C(=C\c2ccc(N3CCCCC3)cc2)C1=O (stereo unspecified)
EC50 [1]: 24 µM
EC90 [1]: 36 µM
MIC90 [1]: 25 µM (≈ 11.6 µg/mL)
Ratio [2]: 4
Activity (Vero): Non-toxic

O=C(C1CC1)C(c1ccccc1F)N1C(=O)S/C(=C\c2cccs2)C1=O (stereo unspecified)
EC50 [1]: 6 µM
EC90 [1]: 11 µM
MIC90 [1]: 25 µM (≈ 9.69 µg/mL)
Ratio EC50 [3]: 1.95
Ratio [4]: 6.26
Ratio EC50 [5]: 5.85
Ratio [2]: 4
Activity (Vero): Non-toxic

O=C(C1CC1)C(c1ccccc1F)N1C(=O)S/C(=C\c2cc(Br)cs2)C1=O (stereo unspecified)
EC50 [1]: 18 µM
EC90 [1]: 27 µM
MIC90 [1]: 50 µM (≈ 23.3 µg/mL)
Activity (Vero): Non-toxic

O=C(C1CC1)C(c1ccccc1F)N1C(=O)S/C(=C\c2c[nH]c3ccccc23)C1=O (stereo unspecified)
EC50 [1]: 18 µM
EC90 [1]: 27 µM
MIC90 [1]: 25 µM (≈ 10.5 µg/mL)
Ratio [2]: 4
Activity (Vero): Non-toxic

O=C(C1CC1)C(c1ccccc1F)N1C(=O)S/C(=C\c2ccc3ccccc3n2)C1=O (stereo unspecified)
EC50 [1]: 14 µM
EC90 [1]: 68 µM
MIC90 [1]: 25 µM (≈ 10.8 µg/mL)
Ratio [2]: 4
Activity (Vero): Non-toxic

O=C(C1CC1)C(c1ccccc1F)N1C(=O)S/C(=C\c2ccc3c(c2)OCO3)C1=O (stereo unspecified)
EC50 [1]: 9 µM
EC90 [1]: 21 µM
MIC90 [1]: 25 µM (≈ 10.6 µg/mL)
Ratio [2]: 4
Activity (Vero): Non-toxic

O=C(C1CC1)C(c1ccccc1F)N1C(=O)CSC1=O (stereo unspecified)
EC50 [1]: 6 µM
EC90 [1]: 26 µM
MIC90 [1]: 25 µM (≈ 7.33 µg/mL)
Ratio [2]: 4
Activity (Vero): Non-toxic

O=C(C1CC1)C(c1ccccc1F)N1C(=O)S/C(=C\c2ccccc2)C1=O (stereo unspecified)
EC50 [1]: 17 µM
EC90 [1]: 36 µM
MIC90 [1]: 50 µM (≈ 19.1 µg/mL)
Activity (Vero): Non-toxic

O=C(C1CC1)C(c1ccccc1F)N1C(=O)S/C(=C\c2ccc(Cl)cc2)C1=O (stereo unspecified)
EC50 [1]: 25 µM
EC90 [1]: 55 µM
MIC90 [1]: 50 µM (≈ 20.8 µg/mL)
Activity (Vero): Non-toxic

O=C(C1CC1)C(c1ccccc1F)N1C(=O)S/C(=C\c2ccc(F)cc2)C1=O (stereo unspecified)
EC50 [1]: 11 µM
EC90 [1]: 25 µM
MIC90 [1]: 25 µM (≈ 9.99 µg/mL)
Ratio [2]: 4
Activity (Vero): Non-toxic

O=C(C1CC1)C(c1ccccc1F)N1C(=O)S/C(=C\c2ccc(O)cc2)C1=O (stereo unspecified)
EC50 [1]: 10 µM
EC90 [1]: 19 µM
MIC90 [1]: 25 µM (≈ 9.94 µg/mL)
Ratio [2]: 4
Activity (Vero): Non-toxic

COc1ccc(/C=C2\SC(=O)N(C(C(=O)C3CC3)c3ccccc3F)C2=O)cc1 (stereo unspecified)
EC50 [1]: 11 µM
EC90 [1]: 27 µM
MIC90 [1]: 25 µM (≈ 10.3 µg/mL)
Ratio [2]: 4
Activity (Vero): Non-toxic

CSc1ccc(/C=C2\SC(=O)N(C(C(=O)C3CC3)c3ccccc3F)C2=O)cc1 (stereo unspecified)
EC50 [1]: 16 µM
EC90 [1]: 25 µM
MIC90 [1]: 25 µM (≈ 10.7 µg/mL)
Ratio [2]: 4
Activity (Vero): Non-toxic

O=C(C1CC1)C(c1ccccc1F)N1C(=O)S/C(=C\c2ccc(O)c(O)c2)C1=O (stereo unspecified)
EC50 [1]: 21 µM
EC90 [1]: 55 µM
MIC90 [1]: 25 µM (≈ 10.3 µg/mL)
Ratio [2]: 4
Activity (Vero): Non-toxic

NCC[C@H](O)C(=O)N[C@@H]1C[C@H](N)[C@@H](O[C@H]2O[C@H](CN)[C@@H](O)[C@H](O)[C@H]2O)[C@H](O)[C@H]1O[C@H]1O[C@H](CO)[C@@H](O)[C@H](N)[C@H]1O [AMIKACIN]
EC90 [1]: 0.08 µM
MIC90 [1]: 0.16 µM (≈ 0.0937 µg/mL)

N[C@@H]1CONC1=O [CYCLOSERINE]
EC50 [1]: 12.5 µM
EC90 [1]: 13.5 µM
MIC90 [1]: 25 µM (≈ 2.55 µg/mL)

CC[C@@H](CO)NCCN[C@@H](CC)CO [ETHAMBUTOL]
EC50 [1]: < 1.56 µM
EC90 [1]: 32.8 µM
MIC90 [1]: 12.5 µM (≈ 2.55 µg/mL)

NNC(=O)c1ccncc1 [ISONIAZID]
EC50 [1]: 0.18 µM
EC90 [1]: 0.29 µM
MIC90 [1]: 0.31 µM (≈ 0.0425 µg/mL)

CCc1nc(N)nc(N)c1-c1ccc(Cl)cc1 [PYRIMETHAMINE]
EC50 [1]: 37.4 µM
EC90 [1]: 75 µM
MIC90 [1]: 100 µM (≈ 24.9 µg/mL)

— ChEMBL document CHEMBL3120070, “Antimycobacterial evaluation of novel hybrid arylidene thiazolidine-2,4-diones” (Bioorg Med Chem Lett, 2014)
